From patent US8471005B2 (Cephalon, Inc., priority 2008, dated 2013)

Tests used:
[1] = target: T1, JAK2 (Homo sapiens, UniProt O60674); assay: Recombinant Human JAK2 Kinase Assay (TRF); type: biochemical; conditions: JAK2 Kinase Inhibition; read-out: JAK2 Potency
T1 construct: host or cells: baculovirus expression system
Procedure, shortened: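 Kinase activity of baculovirus-expressed JAK2 is followed on a surface-immobilised biotinylated peptide, with the reaction run for 20 min at room temperature in buffer containing 0.2 μM ATP and manganese. Phosphorylation is read with Eu-N1 PY100 antibody.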

[2] = target: T2, ALK (Homo sapiens, UniProt Q9UM73); assay: ALK Kinase Assay (ELISA/TRF, PLC-γ substrate); type: biochemical; conditions: ALK Kinase Inhibition; read-out: ALK Potency
T2 construct: host or cells: baculovirus expression system
Procedure, shortened: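 Time-resolved fluorescence ELISA using Eu-N1 PT66 antibody to detect phosphorylated PLC-γ (coated at 10 μg/mL). Enzyme at 30 ng/ml ALK; 15 min incubation, 37° C.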

T2 sequence (Q9UM73 19-1620): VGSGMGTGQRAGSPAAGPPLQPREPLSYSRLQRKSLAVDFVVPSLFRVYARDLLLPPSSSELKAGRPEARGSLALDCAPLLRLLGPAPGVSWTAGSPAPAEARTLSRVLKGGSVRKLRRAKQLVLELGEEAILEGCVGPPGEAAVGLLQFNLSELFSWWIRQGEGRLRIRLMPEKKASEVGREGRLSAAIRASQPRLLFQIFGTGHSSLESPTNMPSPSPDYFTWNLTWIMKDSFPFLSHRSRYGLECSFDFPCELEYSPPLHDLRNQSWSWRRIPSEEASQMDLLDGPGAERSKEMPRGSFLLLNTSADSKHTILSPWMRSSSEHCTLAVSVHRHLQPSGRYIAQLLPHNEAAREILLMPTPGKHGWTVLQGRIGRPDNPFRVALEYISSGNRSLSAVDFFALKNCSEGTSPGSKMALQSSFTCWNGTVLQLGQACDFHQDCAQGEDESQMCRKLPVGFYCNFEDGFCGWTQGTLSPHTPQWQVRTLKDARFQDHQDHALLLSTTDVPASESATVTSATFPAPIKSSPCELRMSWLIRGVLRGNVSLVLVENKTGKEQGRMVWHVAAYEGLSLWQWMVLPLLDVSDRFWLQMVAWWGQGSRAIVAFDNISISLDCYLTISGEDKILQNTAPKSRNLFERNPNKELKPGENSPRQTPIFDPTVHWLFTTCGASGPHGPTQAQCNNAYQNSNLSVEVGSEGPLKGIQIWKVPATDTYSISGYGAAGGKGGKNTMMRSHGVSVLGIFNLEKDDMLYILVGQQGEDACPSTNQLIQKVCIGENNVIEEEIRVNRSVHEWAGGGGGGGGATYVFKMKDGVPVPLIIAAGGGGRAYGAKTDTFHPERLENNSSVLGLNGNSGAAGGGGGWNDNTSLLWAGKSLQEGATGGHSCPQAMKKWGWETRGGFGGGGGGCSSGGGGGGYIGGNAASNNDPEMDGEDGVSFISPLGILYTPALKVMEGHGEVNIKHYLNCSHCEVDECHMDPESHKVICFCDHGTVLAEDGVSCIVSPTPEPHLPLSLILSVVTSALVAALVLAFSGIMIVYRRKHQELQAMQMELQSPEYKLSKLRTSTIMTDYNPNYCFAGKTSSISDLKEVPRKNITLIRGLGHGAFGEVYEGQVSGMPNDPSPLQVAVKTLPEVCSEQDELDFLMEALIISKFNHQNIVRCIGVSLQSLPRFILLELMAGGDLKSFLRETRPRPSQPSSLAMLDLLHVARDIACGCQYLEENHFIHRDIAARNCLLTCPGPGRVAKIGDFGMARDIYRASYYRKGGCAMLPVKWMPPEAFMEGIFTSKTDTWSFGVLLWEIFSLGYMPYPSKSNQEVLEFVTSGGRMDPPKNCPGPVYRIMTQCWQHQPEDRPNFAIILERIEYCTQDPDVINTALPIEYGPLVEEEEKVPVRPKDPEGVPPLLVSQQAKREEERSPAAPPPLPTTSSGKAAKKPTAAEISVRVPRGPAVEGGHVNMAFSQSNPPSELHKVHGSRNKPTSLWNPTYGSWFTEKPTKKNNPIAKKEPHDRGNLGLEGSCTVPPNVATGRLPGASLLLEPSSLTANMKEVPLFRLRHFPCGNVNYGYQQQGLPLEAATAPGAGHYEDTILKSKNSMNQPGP
T1 sequence (O60674 whole entry): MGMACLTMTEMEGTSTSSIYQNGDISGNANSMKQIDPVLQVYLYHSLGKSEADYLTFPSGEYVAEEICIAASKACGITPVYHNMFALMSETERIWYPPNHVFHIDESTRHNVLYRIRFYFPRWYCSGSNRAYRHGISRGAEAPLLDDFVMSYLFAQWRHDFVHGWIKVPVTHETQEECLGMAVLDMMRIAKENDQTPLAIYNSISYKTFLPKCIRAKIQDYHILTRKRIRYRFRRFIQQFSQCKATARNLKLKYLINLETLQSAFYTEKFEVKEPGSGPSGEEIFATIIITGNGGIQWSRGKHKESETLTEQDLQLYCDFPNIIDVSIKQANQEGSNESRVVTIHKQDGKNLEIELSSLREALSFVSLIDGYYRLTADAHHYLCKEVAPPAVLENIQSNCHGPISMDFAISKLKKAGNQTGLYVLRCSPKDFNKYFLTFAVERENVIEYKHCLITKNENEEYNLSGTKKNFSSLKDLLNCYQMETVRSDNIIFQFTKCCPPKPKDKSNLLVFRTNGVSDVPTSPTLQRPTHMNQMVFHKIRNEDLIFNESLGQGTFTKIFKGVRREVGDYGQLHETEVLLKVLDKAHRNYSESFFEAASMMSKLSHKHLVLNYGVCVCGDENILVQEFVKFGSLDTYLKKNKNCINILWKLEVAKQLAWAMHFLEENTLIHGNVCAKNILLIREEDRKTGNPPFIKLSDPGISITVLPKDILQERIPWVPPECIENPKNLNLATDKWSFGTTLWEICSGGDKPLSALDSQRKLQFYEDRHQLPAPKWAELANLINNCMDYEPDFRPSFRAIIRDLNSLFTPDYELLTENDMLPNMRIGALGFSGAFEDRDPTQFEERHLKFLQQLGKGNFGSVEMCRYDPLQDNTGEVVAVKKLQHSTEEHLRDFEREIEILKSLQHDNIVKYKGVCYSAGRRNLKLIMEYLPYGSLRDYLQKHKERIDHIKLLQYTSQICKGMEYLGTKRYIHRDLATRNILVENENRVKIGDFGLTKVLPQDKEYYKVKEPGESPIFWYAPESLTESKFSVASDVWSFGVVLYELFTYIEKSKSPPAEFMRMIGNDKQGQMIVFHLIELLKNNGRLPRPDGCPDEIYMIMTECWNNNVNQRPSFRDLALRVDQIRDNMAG

Structure (SMILES) | IC50 [1] | IC50 [2]
OCCN1CCN(c2cccc(Nc3ncc4ccc(-c5cccc(Cl)c5)n4n3)c2)CC1 [Example 179, 2-(4-{3-[7-(3-Chloro-phenyl)-pyrrolo[2,1-f][1,2,4]triazin-2-ylamino]-phenyl}-piperazin-1-yl)-ethanol] | < 100 nM | < 100 nM
COc1ccc(Cl)cc1-c1ccc2cnc(Nc3cccc(N4CCN(CCO)CC4)c3)nn12 [Example 180, 2-(4-{3-[7-(5-Chloro-2-methoxy-phenyl)-pyrrolo[2,1-f][1,2,4]triazin-2-ylamino]-phenyl}-piperazin-1-yl)-ethanol] | < 100 nM | < 100 nM
CS(=O)(=O)c1ccc(-c2ccc3cnc(Nc4cccc(N5CCN(CCO)CC5)c4)nn23)cc1 [Example 181, 2-(4-{3-[7-(4-Methanesulfonyl-phenyl)-pyrrolo[2,1-f][1,2,4]triazin-2-ylamino]-phenyl}-piperazin-1-yl)-ethanol] | < 100 nM | 100 to 1000 nM
CS(=O)(=O)Nc1ccc(-c2ccc3cnc(Nc4cccc(N5CCOCC5)c4)nn23)cc1 [Example 182, N-{4-[2-(3-Morpholin-4-yl-phenylamino)-pyrrolo[2,1-f][1,2,4]triazin-7-yl]-phenyl}-methanesulfonamide] | < 100 nM | 100 to 1000 nM
CS(=O)(=O)Nc1cccc(-c2ccc3cnc(Nc4cccc(N5CCOCC5)c4)nn23)c1 [Example 183, N-{3-[2-(3-Morpholin-4-yl-phenylamino)-pyrrolo[2,1-f][1,2,4]triazin-7-yl]-phenyl}-methanesulfonamide] | < 100 nM | 100 to 1000 nM
CS(=O)(=O)c1cccc(-c2ccc3cnc(Nc4cccc(N5CCOCC5)c4)nn23)c1 [Example 184, [7-(3-Methanesulfonyl-phenyl)-pyrrolo[2,1-f][1,2,4]triazin-2-yl]-(3-morpholin-4-yl-phenyl)-amine] | < 100 nM | 1000 to 10000 nM
COc1cc(Nc2ncc3ccc(-c4cccc(S(C)(=O)=O)c4)n3n2)cc(OC)c1OC [Example 185, [7-(3-Methanesulfonyl-phenyl)-pyrrolo[2,1-f][1,2,4]triazin-2-yl]-(3,4,5-trimethoxy-phenyl)-amine] | < 100 nM | 100 to 1000 nM
COc1ccccc1-c1ccc2cnc(Nc3ccc(N4CCOCC4)c(F)c3)nn12 [Example 186, (3-Fluoro-4-morpholin-4-yl-phenyl)-[7-(2-methoxy-phenyl)-pyrrolo[2,1-f][1,2,4]triazin-2-yl]-amine] | < 100 nM | 100 to 1000 nM
Fc1cc(Nc2ncc3ccc(-c4cccc(Cl)c4)n3n2)ccc1N1CCOCC1 [Example 187, [7-(3-Chloro-phenyl)-pyrrolo[2,1-f][1,2,4]triazin-2-yl]-(3-fluoro-4-morpholin-4-yl-phenyl)-amine] | < 100 nM | > 10000 nM
COc1ccc(Cl)cc1-c1ccc2cnc(Nc3ccc(N4CCOCC4)c(F)c3)nn12 [Example 188, [7-(5-Chloro-2-methoxy-phenyl)-pyrrolo[2,1-f][1,2,4]triazin-2-yl]-(3-fluoro-4-morpholin-4-yl-phenyl)-amine] | < 100 nM | 1000 to 10000 nM
CS(=O)(=O)c1ccc(-c2ccc3cnc(Nc4ccc(N5CCOCC5)c(F)c4)nn23)cc1 [Example 189, (3-Fluoro-4-morpholin-4-yl-phenyl)-[7-(4-methanesulfonyl-phenyl)-pyrrolo[2,1-f][1,2,4]triazin-2-yl]-amine] | < 100 nM | > 10000 nM
COCCOc1ncc2ccc(-c3cccc(Cl)c3)n2n1 [Example 190, 7-(3-Chloro-phenyl)-2-(2-methoxy-ethoxy)-pyrrolo[2,1-f][1,2,4]triazine] | < 100 nM | > 10000 nM
COCCOc1ncc2ccc(-c3cc(Cl)ccc3OC)n2n1 [Example 191, 7-(5-Chloro-2-methoxy-phenyl)-2-(2-methoxy-ethoxy)-pyrrolo[2,1-f][1,2,4]triazine] | < 100 nM | > 10000 nM
CC(C)S(=O)(=O)c1ccc(-c2ccc3cnc(Nc4cccc(N5CCOCC5)c4)nn23)cc1 [Example 192, (3-Morpholin-4-yl-phenyl)-{7-[4-(propane-2-sulfonyl)-phenyl]-pyrrolo[2,1-f][1,2,4]triazin-2-yl}-amine] | < 100 nM | 1000 to 10000 nM
CS(=O)(=O)c1ccc(-c2ccc3cnc(Nc4cccc(N5CCOCC5)c4)nn23)cc1F [Example 193, [7-(3-Fluoro-4-methanesulfonyl-phenyl)-pyrrolo[2,1-f][1,2,4]triazin-2-yl]-(3-morpholin-4-yl-phenyl)-amine] | < 100 nM | 1000 to 10000 nM
CNC(=O)c1ccc(-c2ccc3cnc(Nc4cccc(N5CCOCC5)c4)nn23)cc1 [Example 194, N-Methyl-4-[2-(3-morpholin-4-yl-phenylamino)-pyrrolo[2,1-f][1,2,4]triazin-7-yl]-benzamide] | < 100 nM | 100 to 1000 nM

Structure (SMILES) | IC50 [1] | IC50 [2]
COc1ccccc1-c1ccc2cnc(Nc3cccc(N4CCC(N5CCOCC5)CC4)c3)nn12 [Example 195, [7-(2-Methoxy-phenyl)-pyrrolo[2,1-f][1,2,4]triazin-2-yl]-[3-(4-morpholin-4-yl-piperidin-1-yl)-phenyl]-amine] | < 100 nM | < 100 nM
COc1ccc(Cl)cc1-c1ccc2cnc(Nc3cccc(N4CCC(N5CCOCC5)CC4)c3)nn12 [Example 196, [7-(5-Chloro-2-methoxy-phenyl)-pyrrolo[2,1-f][1,2,4]triazin-2-yl]-[3-(4-morpholin-4-yl-piperidin-1-yl)-phenyl]-amine] | < 100 nM | < 100 nM
COCCOc1ncc2ccc(-c3ccc(S(C)(=O)=O)cc3)n2n1 [Example 197, 7-(4-Methanesulfonyl-phenyl)-2-(2-methoxy-ethoxy)-pyrrolo[2,1-f][1,2,4]triazine] | 100 to 1000 nM | > 10000 nM
Cn1cc(-c2ccc3cnc(Nc4cccc(N5CCOCC5)c4)nn23)cn1 [Example 198, [7-(1-Methyl-1H-pyrazol-4-yl)-pyrrolo[2,1-f][1,2,4]triazin-2-yl]-(3-morpholin-4-yl-phenyl)-amine] | < 100 nM | 100 to 1000 nM
CC(C)S(=O)(=O)c1ccc(-c2ccc3cnc(Nc4ccc(N5CCOCC5)cc4)nn23)cc1 [Example 199, (4-Morpholin-4-yl-phenyl)-{7-[4-(propane-2-sulfonyl)-phenyl]-pyrrolo[2,1-f][1,2,4]triazin-2-yl}-amine] | < 100 nM | 1000 to 10000 nM
CS(=O)(=O)Nc1ccc(-c2ccc3cnc(Nc4ccc(N5CCOCC5)cc4)nn23)cc1 [Example 200, N-{4-[2-(4-Morpholin-4-yl-phenylamino)-pyrrolo[2,1-f][1,2,4]triazin-7-yl]-phenyl}-methanesulfonamide] | < 100 nM | 100 to 1000 nM
CS(=O)(=O)Nc1cccc(-c2ccc3cnc(Nc4ccc(N5CCOCC5)cc4)nn23)c1 [Example 201, N-{3-[2-(4-Morpholin-4-yl-phenylamino)-pyrrolo[2,1-f][1,2,4]triazin-7-yl]-phenyl}-methanesulfonamide] | < 100 nM | 100 to 1000 nM
COc1ccc(Cl)cc1-c1ccc2cnc(Nc3ccc(N4CCN(C[C@H](C)O)CC4)cc3)nn12 [Example 203, (S)-1-(4-{4-[7-(5-Chloro-2-methoxy-phenyl)-pyrrolo[2,1-f][1,2,4]triazin-2-ylamino]-phenyl}-piperazin-1-yl)-propan-2-ol] | < 100 nM | < 100 nM
C[C@H](O)CN1CCN(c2ccc(Nc3ncc4ccc(-c5cccc(Cl)c5)n4n3)cc2)CC1 [Example 204, (S)-1-(4-{4-[7-(3-Chloro-phenyl)-pyrrolo[2,1-f][1,2,4]triazin-2-ylamino]-phenyl}-piperazin-1-yl)-propan-2-ol] | < 100 nM | < 100 nM
C[C@H](O)CN1CCN(c2ccc(Nc3ncc4ccc(-c5ccc(S(C)(=O)=O)cc5)n4n3)cc2)CC1 [Example 205, (S)-1-(4-{4-[7-(4-Methanesulfonyl-phenyl)-pyrrolo[2,1-f][1,2,4]triazin-2-ylamino]-phenyl}-piperazin-1-yl)-propan-2-ol] | < 100 nM | 100 to 1000 nM
COc1ccc(Cl)cc1-c1ccc2cnc(Nc3ccc(N4CCN(C[C@@H](C)O)CC4)cc3)nn12 [Example 207, (R)-1-(4-{4-[7-(5-Chloro-2-methoxy-phenyl)-pyrrolo[2,1-f][1,2,4]triazin-2-ylamino]-phenyl}-piperazin-1-yl)-propan-2-ol] | < 100 nM | < 100 nM
C[C@@H](O)CN1CCN(c2ccc(Nc3ncc4ccc(-c5cccc(Cl)c5)n4n3)cc2)CC1 [Example 208, (R)-1-(4-{4-[7-(3-Chloro-phenyl)-pyrrolo[2,1-f][1,2,4]triazin-2-ylamino]-phenyl}-piperazin-1-yl)-propan-2-ol] | < 100 nM | 100 to 1000 nM
C[C@@H](O)CN1CCN(c2ccc(Nc3ncc4ccc(-c5ccc(S(C)(=O)=O)cc5)n4n3)cc2)CC1 [Example 209, (R)-1-(4-{4-[7-(4-Methanesulfonyl-phenyl)-pyrrolo[2,1-f][1,2,4]triazin-2-ylamino]-phenyl}-piperazin-1-yl)-propan-2-ol] | < 100 nM | 100 to 1000 nM
COc1ccc(Cl)cc1-c1ccc2cnc(Nc3cccc(N4CCN(C[C@H](C)O)CC4)c3)nn12 [Example 211, (S)-1-(4-{3-[7-(5-Chloro-2-methoxy-phenyl)-pyrrolo[2,1-f][1,2,4]triazin-2-ylamino]-phenyl}-piperazin-1-yl)-propan-2-ol] | < 100 nM | < 100 nM
C[C@H](O)CN1CCN(c2cccc(Nc3ncc4ccc(-c5cccc(Cl)c5)n4n3)c2)CC1 [Example 212, (S)-1-(4-{3-[7-(3-Chloro-phenyl)-pyrrolo[2,1-f][1,2,4]triazin-2-ylamino]-phenyl}-piperazin-1-yl)-propan-2-ol] | < 100 nM | < 100 nM
